Experimental data as given in patent US7439251B2, “Methods and compositions for treatment of central and peripheral nervous system disorders and novel compounds useful therefor” (Israel Institute for Biological Research, priority 2002, dated 2008).
Like-named read-outs stand apart in the source and are kept apart here.

Tests used:
[1] = rat, in vivo, po
Description: This calculation was based on the brain weight (2 gr) vs. total plasma volume (14 ml).

GSK-3β = GSK-3β activity in rat hippocampal neurons; type: cell-based; details: 10 μM with Aβ fibrils 10 μM (fibrils alone 370%)
Description: This study was performed in rat hippocampal primary cell cultures using the methods described by Garrido J L et al. (FASEB J 2002; 16:1982).

[2] = Chronic oral toxicity up to 13 weeks, dog
[3] = tested on: Adrenergic α1A, α1B, α2A, α2B, α2C, β1, β2; BZD peripheral; Clozapine; Dopamine D1, D2, D3; GABA A; Glutamate sites; Glycine; Histamine H1-H3; Nicotinic …; assay: Selectivity binding panel for AF267B
[4] = Chronic oral toxicity up to 13 weeks, rat; type: in vivo, Wistar rat
CYP1A2 = CYP1A2 (Homo sapiens, UniProt P05177); assay: P450 inhibition, microtiter plate; type: in vitro ADME; details: up to 10 μM
Chain of CYP1A2 (P05177 whole entry): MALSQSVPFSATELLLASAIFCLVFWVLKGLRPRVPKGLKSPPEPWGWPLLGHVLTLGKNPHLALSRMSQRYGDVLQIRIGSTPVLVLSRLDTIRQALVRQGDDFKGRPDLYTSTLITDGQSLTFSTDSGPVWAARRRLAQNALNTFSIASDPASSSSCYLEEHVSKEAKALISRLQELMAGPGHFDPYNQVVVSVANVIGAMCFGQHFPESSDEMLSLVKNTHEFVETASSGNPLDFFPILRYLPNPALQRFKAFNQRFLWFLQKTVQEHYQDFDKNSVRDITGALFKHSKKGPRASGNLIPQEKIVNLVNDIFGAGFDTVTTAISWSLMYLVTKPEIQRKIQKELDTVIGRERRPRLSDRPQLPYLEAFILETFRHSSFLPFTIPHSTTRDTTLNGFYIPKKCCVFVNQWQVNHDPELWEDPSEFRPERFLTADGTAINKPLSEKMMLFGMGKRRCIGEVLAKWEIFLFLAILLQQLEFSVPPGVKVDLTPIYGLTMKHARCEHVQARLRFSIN
Description: (§1) Cytochrome P450 activity can be an indicator for potential drug-drug interactions. AF292 was evaluated in a microtiter plate assay for P450 inhibition.

CYP2C9 = CYP2C9 (Homo sapiens, UniProt P11712); assay: P450 inhibition, microtiter plate; type: in vitro ADME; details: up to 10 μM
Chain of CYP2C9 (P11712 whole entry): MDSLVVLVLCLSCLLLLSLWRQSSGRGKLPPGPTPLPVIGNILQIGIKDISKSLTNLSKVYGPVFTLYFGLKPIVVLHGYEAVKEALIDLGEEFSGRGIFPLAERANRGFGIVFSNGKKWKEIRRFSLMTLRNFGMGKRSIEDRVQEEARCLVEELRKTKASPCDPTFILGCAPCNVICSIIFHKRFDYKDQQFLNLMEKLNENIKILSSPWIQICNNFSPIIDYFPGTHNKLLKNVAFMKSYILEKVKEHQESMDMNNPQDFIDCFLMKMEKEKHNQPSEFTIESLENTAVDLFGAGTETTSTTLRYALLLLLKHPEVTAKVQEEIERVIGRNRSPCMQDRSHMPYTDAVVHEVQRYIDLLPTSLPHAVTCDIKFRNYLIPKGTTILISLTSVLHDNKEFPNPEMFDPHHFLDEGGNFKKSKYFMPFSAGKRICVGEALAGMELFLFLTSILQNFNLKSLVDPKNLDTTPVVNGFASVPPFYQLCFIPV
Description: as §1

CYP2C19 = CYP2C19 (Homo sapiens, UniProt P33261); assay: P450 inhibition, microtiter plate; type: in vitro ADME; details: up to 10 μM
Chain of CYP2C19 (P33261 whole entry): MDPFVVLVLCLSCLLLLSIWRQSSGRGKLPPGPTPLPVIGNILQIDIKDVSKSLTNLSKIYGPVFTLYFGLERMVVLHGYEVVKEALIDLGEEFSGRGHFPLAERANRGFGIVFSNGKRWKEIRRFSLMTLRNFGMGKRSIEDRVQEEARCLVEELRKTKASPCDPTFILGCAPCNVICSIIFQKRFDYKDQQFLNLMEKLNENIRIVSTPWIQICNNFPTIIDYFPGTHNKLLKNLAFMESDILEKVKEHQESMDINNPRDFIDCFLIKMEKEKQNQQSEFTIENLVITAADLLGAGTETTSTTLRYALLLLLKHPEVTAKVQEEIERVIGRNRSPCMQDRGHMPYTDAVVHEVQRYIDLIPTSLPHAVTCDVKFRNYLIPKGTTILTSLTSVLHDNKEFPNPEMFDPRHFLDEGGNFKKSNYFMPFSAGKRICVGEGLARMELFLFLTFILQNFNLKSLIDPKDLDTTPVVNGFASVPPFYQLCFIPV
Description: as §1

CYP3A4 = CYP3A4 (Homo sapiens, UniProt P08684); assay: P450 inhibition, microtiter plate; type: in vitro ADME; details: up to 10 μM
Chain of CYP3A4 (P08684 whole entry): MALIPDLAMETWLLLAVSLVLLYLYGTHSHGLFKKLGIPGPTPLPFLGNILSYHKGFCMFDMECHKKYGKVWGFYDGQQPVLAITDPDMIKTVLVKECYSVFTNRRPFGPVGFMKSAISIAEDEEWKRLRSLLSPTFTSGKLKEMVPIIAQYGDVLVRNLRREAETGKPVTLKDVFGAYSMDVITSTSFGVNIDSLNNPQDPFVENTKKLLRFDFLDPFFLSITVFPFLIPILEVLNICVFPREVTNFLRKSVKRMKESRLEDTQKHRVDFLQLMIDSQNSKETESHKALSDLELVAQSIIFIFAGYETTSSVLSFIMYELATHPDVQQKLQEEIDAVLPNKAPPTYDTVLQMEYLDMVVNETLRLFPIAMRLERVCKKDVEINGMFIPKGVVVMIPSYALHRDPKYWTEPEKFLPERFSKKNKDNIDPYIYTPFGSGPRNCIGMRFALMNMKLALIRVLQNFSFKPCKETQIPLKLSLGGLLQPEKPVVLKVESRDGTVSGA
Description: as §1

CPY2D6 = CPY2D6 (Homo sapiens, UniProt P10635); assay: P450 inhibition, microtiter plate; type: in vitro ADME; details: up to 10 μM
Chain of CPY2D6 (P10635 whole entry): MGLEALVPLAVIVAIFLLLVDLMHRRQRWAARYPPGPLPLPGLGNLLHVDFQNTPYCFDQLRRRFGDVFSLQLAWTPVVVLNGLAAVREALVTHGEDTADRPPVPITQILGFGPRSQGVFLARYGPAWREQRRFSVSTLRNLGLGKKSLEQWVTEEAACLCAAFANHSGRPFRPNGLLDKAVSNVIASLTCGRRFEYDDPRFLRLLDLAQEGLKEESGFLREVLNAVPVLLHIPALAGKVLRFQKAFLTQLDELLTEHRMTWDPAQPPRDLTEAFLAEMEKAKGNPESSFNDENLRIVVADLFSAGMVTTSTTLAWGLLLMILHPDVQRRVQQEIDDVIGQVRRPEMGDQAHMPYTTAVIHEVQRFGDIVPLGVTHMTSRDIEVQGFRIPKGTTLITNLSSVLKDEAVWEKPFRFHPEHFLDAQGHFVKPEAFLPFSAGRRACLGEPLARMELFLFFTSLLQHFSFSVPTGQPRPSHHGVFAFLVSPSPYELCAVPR
Description: as §1

| Structure (SMILES) | % of the compound found in the brain (Cmax brain/Cmax plasma) ([1]; female) | % of the compound found in the brain (Cmax brain/Cmax plasma) ([1]; male) | GSK-3β activity vs. control (100%) (GSK-3β) | ECG (heart rate, P wave, P-Q, QRS, QT) ([2]; beagle dogs, oral, up to 13 weeks) | dose at which (muscarinic) effects are seen ([2]; dog) | no-adverse-effect-level (NOAEL) ([2]; dog, po, up to 13 weeks) | binding to other receptors and enzymes [3] | dose at which (muscarinic) effects are seen [4] | P450 inhibition (CYP1A2) | P450 inhibition (CYP2C9) | P450 inhibition (CYP2C19) | P450 inhibition (CYP3A4) | P450 inhibition (CPY2D6) |
| --- | --- | --- | --- | --- | --- | --- | --- | --- | --- | --- | --- | --- | --- |
| CC[C@@H]1SC2(CCN(C)CC2)NC1=O [AF267B, (S)-2-ethyl-8-methyl-1-thia-4,8-diaza-spiro[4.5]decan-3-one] | 16% | 25% | 150% | no changes in the ECG | > 9 mg/kg | 6 to 9 mg/kg/day | no binding at all | > 40 mg/kg | – | – | – | – | – |
| CC[C@@H]1SC2(CCNCC2)NC1=O [AF292, (S)-2-Ethyl-1-thia-4,8-diaza-spiro[4.5]decan-3-one] | – | – | – | – | – | – | – | – | did not induce significant | did not induce significant | did not induce significant | did not induce significant | did not induce significant |
